Reference: US8207227B2, “Disodium salts, monohydrates, and ethanol solvates for delivering active agents” (Emisphere Technologies, Inc., priority 1999, dated 2012)
Values belong to the compound of their own block, whether it stands above or below them.

Assays:
[1] = Oral delivery of low molecular weight heparin (LMWH) with SNAD salts; plasma heparin by anti-Factor Xa assay; type: in vivo, Sprague-Dawley rats; settings: rats, 3 ml/kg, compound 300 mg/kg, LMWH dose 3000 (mg/kg)
Experimental: The typical dosing and sampling protocols were as follows. Male Sprague-Dawley rats weighing between 275-350 g were fasted for 24 hours and were anesthetized with ketamine hydrochloride (about 88 mg/kg) intramuscularly immediately prior to dosing and again as needed to maintain anesthesia. A dosing group of ten rats was administered one of the dosing solutions. An 11 cm Rusch 8 French catheter was adapted to a 1 ml syringe with a pipette tip. The syringe was filled with dosing solution by drawing the solution through the catheter, which was then wiped dry. The catheter was placed down the esophagus leaving 1 cm of tubing past the incisors. Solution was administered by pressing the syringe plunger.
Oral dosing (PO) compositions containing low molecular weight heparin (LMWH) and either the mono-sodium or di-sodium salt form of the delivery agent compound SNAD were prepared in water. […]
Citrated blood samples were collected by cardiac puncture 0.5, 1.0, 2.0, 3.0 and 4.0 hours after administration. Heparin absorption was verified by an increase in plasma heparin measured by the anti-Factor Xa assay CHROMOSTRATE® Heparin anti-Xa assay, available from Organon Teknika Corporation of Durham, N.C. Baseline values were determined earlier and found to be about zero IU/ml. […]

[2] = Oral delivery of heparin with SNAC salts; plasma heparin by anti-Factor Xa assay; type: in vivo, Sprague-Dawley rats; settings: rats, oral gavage, 3 ml/kg, compound 300 mg/kg, heparin 100 mg/kg
Experimental: The typical dosing and sampling protocols were as follows. […] The syringe was filled with dosing solution by drawing the solution through the catheter, which was then wiped dry. The catheter was placed down the esophagus leaving 1 cm of tubing past the incisors. Solution was administered by pressing the syringe plunger.

clotting time (APTT) = experiment: Oral delivery of heparin with SNAC salts; clotting time by activated partial thromboplastin time (APTT); type: in vivo, Sprague-Dawley rats; settings: rats, oral gavage, 3 ml/kg, compound 300 mg/kg, heparin 100 mg/kg; baseline about 20 seconds
Experimental: Oral gavage (PO) dosing solutions containing heparin sodium USP and either the mono-sodium or di-sodium salt form of the delivery agent compound SNAC were prepared in water. The delivery agent compound and heparin (166.9 IU/mg) were mixed by vortex as dry powders. This dry mixture was dissolved in water, vortexed and sonicated at about 37° C. to produce a clear solution. The pH was not adjusted. The final volume was adjusted to about 10.0 ml. The final delivery agent compound dose, heparin dose and dose volume amounts are listed below in Table 2 below.
The typical dosing and sampling protocols were as follows. […]
Citrated blood samples were collected by cardiac puncture 0.25, 0.5, 1.0 and 1.5 hours after administration. Heparin absorption was verified by an increase in clotting time as measured by the activated partial thromboplastin time (APTT) according to the method of Henry, J. B., Clinical Diagnosis and Management by Laboratory Methods, Philadelphia, Pa., W.B. Saunders (1979). […] Heparin absorption was also verified by an increase in plasma heparin measured by the anti-Factor Xa assay CHROMOSTRATE® Heparin anti-Xa assay, available from Organon Teknika Corporation of Durham, N.C. […]

[3] = Oral delivery of heparin with SNAD salts; plasma heparin by anti-Factor Xa assay; type: in vivo, cynomolgus macaque monkeys; settings: cynomolgus monkeys, about 150 mg/kg delivery agent and 30 mg/kg heparin
Experimental: The dose for each monkey was about 150 mg/kg of the disodium SNAD ethanol solvate and about 30 mg/kg of heparin. The dosing protocol for administering the capsules to each animal was as follows. […] Water was available throughout the dosing period and 400 ml juice was made available to the animal overnight prior to dosing and throughout the dosing period. The animal was restrained in a sling restraint. A capsule was placed into a “pill gun”, which is a plastic tool with a cocked plunger and split rubber tip to accommodate a capsule. The pill gun was inserted into the esophagus of the animal. The plunger of the pill gun was pressed to push the capsule out of the rubber tip into the esophagus. The pill gun was then retracted. The animal's mouth was held closed and approximately 5 ml reverse osmosis water was administered into the mouth from the side to induce a swallowing reflex. The throat of the animal was rubbed further to induce the swallowing reflex. […] Blood was added to fill the tube to the 1.3 ml line. The tube was then placed on wet ice pending centrifugation. […] Plasma heparin concentrations were determined using the anti-Factor Xa assay CHROMOSTRATE™ heparin anti-Xa assay, available from Organon Teknika Corporation of Durham, N.C. Results from the animals were averaged for each time point. […] Two tablets were dosed to each of approximately 4.0 kg monkeys. […]

[4] = Oral delivery of sCT/sodium salt of 5-CNAC in rats; serum sCT by EIA kit, modified protocol; type: in vivo, Sprague-Dawley rats; settings: subcutaneous, sCT 5 mg/kg (so in the source), no delivery agent
Experimental: The rats were administered one of the following: • (4a) orally, one capsule of 13 mg lyophilized powder as prepared as in Example 19 with 0.5 ml of water to flush the capsule down; • (4b) orally, 1.0 ml/kg of a reconstituted aqueous solution of the lyophilized powder prepared in Example 19; • (4c) orally, 1.0 ml/kg of “fresh”, unlyophilized aqueous solution of 5-CNAC sodium salt as prepared in Example 20 with sCT; or • (4d) subcutaneously, 5 mg/kg of sCT.
Doses (4a), (4b) and (4c) contained 50 mg/kg of the sodium salt of 5-CNAC and […] of sCT. Doses for (4a) are approximate because the animals were given one capsule filled with the stated amount of powder based on an average animal weight of 250 g, whereas actual animal weight varied. This is also the case in all later examples where a capsule is dosed.
The reconstituted solution for (4b) was prepared by mixing 150 mg of the lyophilized powder prepared as in Example 19 in 3 ml of water. The reconstituted solution was dosed at […].
The subcutaneous doses were prepared by dissolving 2 mg of sCT in 1 ml water. […]. This solution was dosed at 0.5 ml/kg.
Blood samples were collected serially from the tail artery. […]

Compound: O=C([O-])CCCCCCCCCNC(=O)c1ccccc1[O-].[Na+].[Na+] [SNAD-di]
Mean Peak Plasma Heparin Concentration (IU/ml) ± SE [1]: 1.21 ± 0.15 IU/ml

Mean Peak Factor Xa (IU · ml) ± SE [2]: 2.81 ± 0.17 IU · ml
Compound: O=C([O-])CCCCCCCNC(=O)c1ccccc1[O-].[Na+].[Na+] [SNAC - di]
Mean Peak APTT (sec) ± SE (clotting time (APTT)): 300 ± 0 s

Compound: Mono-Sodium N-(8-[(2-hydroxybenzoyl]amino)caprylate [SNAC - mono]
Mean Peak APTT (sec) ± SE (clotting time (APTT)): 247 ± 28.5 s

Compound: O=C([O-])CCCCCCCCCNC(=O)c1ccccc1O.[Na+] [monosodium salt of SNAD, Monosodium N-(10-[2-hydroxybenzoyl]amino)decanoate]
Mean Peak Plasma Heparin Concentration (IU/ml) ± SE [1]: 0.88 ± 0.17 IU/ml | Time after administration at which maximum averaged plasma heparin was reached [3]: 2 h | Maximum averaged plasma heparin concentration ([3]; two capsules or two tablets): 0.23±0.19 IU/mL

Mean Peak Serum sCT ± SD ([4]; Table 5, rats): 965 ± 848 pg/mL | Mean Peak Serum sCT ± SD ([4]; Table 6, rats): 273 ± 320 pg/mL
Compound: CC(C)C[C@H](NC(=O)[C@H](CCCCN)NC(=O)CNC(=O)[C@H](CC(C)C)NC(=O)[C@@H](NC(=O)[C@@H]1CSSC[C@H](N)C(=O)N[C@@H](CO)C(=O)N[C@@H](CC(N)=O)C(=O)N[C@@H](CC(C)C)C(=O)N[C@@H](CO)C(=O)N[C@@H]([C@@H](C)O)C(=O)N1)C(C)C)C(=O)N[C@@H](CO)C(=O)N[C@@H](CCC(N)=O)C(=O)N[C@@H](CCC(=O)O)C(=O)N[C@@H](CC(C)C)C(=O)N[C@@H](Cc1c[nH]cn1)C(=O)N[C@@H](CCCCN)C(=O)N[C@@H](CC(C)C)C(=O)N[C@@H](CCC(N)=O)C(=O)N[C@H](C(=O)N[C@@H](Cc1ccc(O)cc1)C(=O)N1CCC[C@H]1C(=O)N[C@@H](CCCNC(=N)N)C(=O)N[C@H](C(=O)N[C@@H](CC(N)=O)C(=O)N[C@H](C(=O)NCC(=O)N[C@@H](CO)C(=O)NCC(=O)N[C@H](C(=O)N1CCC[C@H]1C(N)=O)[C@@H](C)O)[C@@H](C)O)[C@@H](C)O)[C@@H](C)O [(4d) subcutaneous, salmon calcitonin]
